From ChEMBL document CHEMBL1141662, “Synthesis and antiproliferative activity of aryl- and heteroaryl-hydrazones derived from xanthone carbaldehydes” (Eur J Med Chem, 2008) come the findings set out here.

Molecules are shown by their SMILES.

Assay [1] has as its system MCF7. In words: Antiproliferative activity against human MCF7 cells assessed as cell viability at 1 uM after 24 hrs by MTT assay. In kind it is functional. The following applies: MCF7, 24 h, read-out: Activity.
A short description of assay [2]: Antiproliferative activity against human KB 3.1 cells assessed as cell viability at 1 uM after 24 hrs by MTT assay. It counts as functional. Particulars: KB 3-1, 24 h, read-out: Activity.
The nature of assay [3]: Antiproliferative activity against human KB 3.1 cells assessed as cell viability at 10 uM after 24 hrs by MTT assay. In kind it is functional. The following applies: KB 3-1, 24 h, read-out: Activity.
For assay [4], the system named is MCF7. Put plainly: Antiproliferative activity against human MCF7 cells assessed as cell viability at 10 uM after 24 hrs by MTT assay. It counts as functional. Particulars: MCF7, 24 h, read-out: Activity.
Assay [5] has as its system MCF7. In words: Antiproliferative activity against human MCF7 cells after 24 hrs by MTT assay. It counts as functional, cell-based. The following applies: MCF7, 24 h.
Assay [6] is described as follows: Antiproliferative activity against human KB 3.1 cells after 24 hrs by MTT assay. It counts as functional, cell-based. The following applies: KB 3-1, 24 h.
Assay [7] concerns MCF7. Put plainly: Antiproliferative activity against human MCF7 cells after 72 hrs by MTT assay. In kind it is functional, cell-based. Particulars: MCF7, 72 h.
Assay [8] concerns MCF7. Put plainly: Ratio of IC50 for human […] cells after 24 hrs to IC50 for human MCF7 cells after 72 hrs by MTT assay. It counts as functional.
A short description of assay [9]: Ratio of IC50 for human KB 3.1 cells after 24 hrs to IC50 for human KB 3.1 cells after 72 hrs by MTT assay. In kind it is functional.
Assay [10] can be described thus: Antiproliferative activity against human KB 3.1 cells after 72 hrs by MTT assay. In kind it is functional, cell-based. The following applies: KB 3-1, 72 h.

Turning to `CC(=O)Oc1cc(OC(C)=O)c2c(=O)c3ccc(/C=N/Nc4ccccn4)cc3oc2c1`, the viability at 1 µM in [1] and in assay [2] was 100% each time. The figures for the viability at 10 µM in assay [3] and in assay [4] were 87% and 100%, respectively.
In the case of `CC(=O)Oc1cc(OC(C)=O)c2c(=O)c3cccc(/C=N\Nc4ccccn4)c3oc2c1`, the viability at 1 µM is 80% in assay [1] and 95% in assay [2]. Further, the viability at 10 µM turned out to be 90% in [3] and 79% in assay [4].
In the case of `CC(=O)Oc1cc(OC(C)=O)c2c(=O)c3cc(/C=N/NC4=NCCN4)ccc3oc2c1`, the IC50 in assay [5] is 9.3 µM; in assay [6] it was 11.3 µM; in assay [7], 7 µM; in assay [10] it was 4.7 µM. The figures for the viability at 1 µM in assay [1] and in assay [2] were 64% and 100%, respectively. Also, the viability at 10 µM in assay [3] and in assay [4] was 14% throughout. Besides, the “Ratio IC50” value in assay [8] came to 1.3; in [9], 2.4.
For the compound `CC(=O)Oc1cc(OC(C)=O)c2c(=O)c3ccc(/C=N/Nc4ccccc4)cc3oc2c1`, the viability at 1 µM in assay [1] and in assay [2] was 100% each time. Also, the viability at 10 µM in [3] and in assay [4] was 100% throughout.
For `O=c1c2ccc(/C=N/Nc3ccccn3)cc2oc2cc(O)cc(O)c12`, the viability at 1 µM in assay [1] came out at 100%; in [2] it was 77%. In addition, the figures for the viability at 10 µM in [3] and in [4] were 2% and 3%, respectively.
On the same counts, the results for `O=c1c2ccc(/C=N/NC3=NCCN3)cc2oc2cc(O)cc(O)c12` are 73%, 93%, 80% and 70%.
On the same counts, the results for `O=c1c2cccc(/C=N\NC3=NCCN3)c2oc2cc(O)cc(O)c12` are 97%, 90%, 75% and 82%.
For `O=c1c2cccc(/C=N\Nc3ccccn3)c2oc2cc(O)cc(O)c12`, the viability at 1 µM in assay [1] amounted to 86%; in [2], 96%. Further, the viability at 10 µM was determined as 3% in assay [3] and 12% in assay [4].
On the same counts, the results for `O=c1c2cc(/C=N/NC3=NCCN3)ccc2oc2cc(O)cc(O)c12` are 90%, 99%, 92% and 64%.
For `CC(=O)Oc1cc(OC(C)=O)c2c(=O)c3cc(/C=N/Nc4ccccc4)ccc3oc2c1`, in that order: 100%, 100%, 100% and 100%.
On the same counts, the results for `O=c1c2cc(/C=N/Nc3ccccc3)ccc2oc2cc(O)cc(O)c12` are 100%, 100%, 82% and 72%.
As for `O=c1c2ccc(/C=N/Nc3ccccc3)cc2oc2cc(O)cc(O)c12`, the viability at 1 µM in assay [1] and in assay [2] was 100% each time. Moreover, the viability at 10 µM in assay [3] is 61%; in assay [4], 100%.
On to `O=c1c2cccc(/C=N\Nc3ccccc3)c2oc2cc(O)cc(O)c12`, for which the viability at 1 µM in assay [1] and in assay [2] was 100% throughout. Besides, the viability at 10 µM in assay [3] turned out to be 96%; in assay [4], 100%.
With `CC(=O)Oc1cc(OC(C)=O)c2c(=O)c3ccc(/C=N/NC4=NCCN4)cc3oc2c1`, the IC50 in assay [5] was determined as 1.9 µM; in assay [6] it was 1.6 µM; in assay [7], 2.4 µM; in [10], 1.8 µM. In addition, the viability at 1 µM was 35% in assay [1] and 85% in assay [2]. Besides, the viability at 10 µM in [3] and in [4] was 13% in each case. For the same compound, the “Ratio IC50” value in [8] came out at 0.8; in [9], 0.9.
For the compound `O=c1c2cc(/C=N/Nc3ccccn3)ccc2oc2cc(O)cc(O)c12`, the figures for the viability at 1 µM in assay [1] and in [2] were 58% and 95%, respectively. Also, the viability at 10 µM in assay [3] was determined as 90%; in [4], 41%.
Take `CC(=O)Oc1cc(OC(C)=O)c2c(=O)c3cccc(/C=N\Nc4ccccc4)c3oc2c1`: the viability at 1 µM in assay [1] and in [2] was 100% each time. The figures for the viability at 10 µM in assay [3] and in [4] were 82% and 100%, respectively.
Regarding `CC(=O)Oc1cc(OC(C)=O)c2c(=O)c3cc(/C=N/Nc4ccccn4)ccc3oc2c1`, the viability at 1 µM in assay [1] turned out to be 85%; in [2] it was 98%. Also, the results for the viability at 10 µM in assay [3] and in assay [4] were 60% and 70%, respectively.
Turning to `CC(=O)Oc1cc(OC(C)=O)c2c(=O)c3cccc(/C=N\NC4=NCCN4)c3oc2c1`, the IC50 amounted to 5.1 µM in assay [5], 6.8 µM in [6], 5.6 µM in assay [7] and 6.5 µM in [10]. The viability at 1 µM came out at 80% in assay [1] and 95% in assay [2]. Moreover, the viability at 10 µM worked out at 66% in assay [3] and 48% in assay [4]. The “Ratio IC50” value in assay [8] came to 0.9; in assay [9] it was 1.05.
`COc1cccc2c1C(=O)c1c(O)c3c(c(O)c1C2=O)C[C@@](O)(C(=O)CO)C[C@@H]3O[C@H]1C[C@H](N)[C@H](O)[C@H](C)O1` [DOXORUBICIN]: the values for the IC50 in assay [6] and in assay [10] were 0.01 µM and 0.0004 µM, respectively.
